What was measured:
MCF7 [1] = experiment: cells; format: functional, cell-based; details: Homo sapiens
Description: Inhibition of 10e-4 uM estradiol induced estrogen receptor positive MCF-7 human breast cancer cell proliferation

MDA-MB-453 [2] = experiment: cells; details: Homo sapiens
Description: Inhibition of estrogen receptor negative MDA-MB-453 breast cancer cell proliferation with 10e-4 M estradiol

MCF7 [3] = experiment: cells; format: functional, cell-based; details: Homo sapiens; remark: listed apart in the source
Description: Anti-proliferative activity against estrogen-responsive human breast cancer cell line MCF-7 in the presence of ER at a 10e-4 uM concentration of estradiol

Estrogen receptor = Estrogen receptor (Homo sapiens, UniProt Q92731+P03372)
Description: Binding affinity for estrogen receptor, by competition with [3H]estradiol

MDA-MB-453 [4] = experiment: Inhibition of estrogen receptor negative MDA-MB-453 breast cancer cell proliferation; format: functional, cell-based; details: Homo sapiens
HeLa [5] = experiment: Inhibition of […]e-2 uM estradiol induced human cancer cell HeLa S3 proliferation; format: functional, cell-based
WiDr [6] = experiment: Inhibition of WiDr human cancer cell proliferation; format: functional, cell-based
MCF7 [7] = experiment: Inhibition of estrogen receptor positive MCF-7 human breast cancer cell proliferation; format: functional, cell-based
HeLa [8] = experiment: cells; details: Homo sapiens
Description: Inhibition of 10e-2 uM estradiol induced human cancer cell HeLa S3 proliferation

WiDr [9] = experiment: Inhibition of WiDr human cancer cell proliferation with 10e-2 uM estradiol; format: functional, cell-based

| SMILES | IC50 (MCF7 [1]) | IC50 (MCF7 [3]) | IC50 (Estrogen receptor) | further results |
| --- | --- | --- | --- | --- |
| CC/C(=C(\c1ccccc1)c1ccc(OCCN(C)C)cc1)c1ccccc1 [TAMOXIFEN] | 19 µM | 0.14 µM | – | IC50 (MDA-MB-453 [2]): > 5 µM |
| CN(C)c1ccc(-c2cc(=O)c3c(N)cccc3o2)cc1 | 0.005 µM | 0.004 µM | > 100 µM | – |
| CCN(CC)c1ccc(-c2cc(=O)c3c(N)cccc3o2)cc1 | 0.01 µM | 0.002 µM | – | – |
| Nc1cccc2oc(-c3ccc(NCc4ccccc4)cc3)cc(=O)c12 | 4.3 µM | 4.1 µM | > 100 µM | – |
| CN(C)c1ccc(-c2cc(=O)c3cc(N)ccc3o2)cc1 | 0.035 µM | 0.013 µM | – | – |
| CC(=O)Nc1ccc(-c2cc(=O)c3c(N)cccc3o2)cc1 | 18 µM | 13 µM | > 100 µM | – |
| CCCCNc1ccc(-c2cc(=O)c3c(N)cccc3o2)cc1 | 0.0087 µM | 0.0051 µM | > 100 µM | – |
| O=c1cc(-c2ccc(O)cc2)oc2cc(O)cc(O)c12 [APIGENIN] | 95 µM | > 100 µM | – | – |
| CN(C)c1cccc(-c2cc(=O)c3cc(N)ccc3o2)c1 | 13 µM | 13 µM | – | – |
| Nc1cccc2oc(-c3ccc(C(=O)O)cc3)cc(=O)c12 | > 10 µM | > 10 µM | – | – |
| Nc1ccc(-c2cc(=O)c3c(N)cccc3o2)cc1 | 0.0098 µM | 0.0072 µM | > 100 µM | IC50 (MDA-MB-453 [4]): > 5 µM; IC50 (HeLa [5]): > 10 µM; IC50 (WiDr [6]): > 10 µM; IC50 (MCF7 [7]): 0.052 µM |
| COc1ccc(-c2cc(=O)c3c(N)cccc3o2)cc1 | > 100 µM | 12 µM | > 100 µM | – |
| Nc1cccc2oc(-c3ccc(Br)cc3)cc(=O)c12 | 9.5 µM | 1 µM | > 100 µM | – |
| Nc1cccc2oc(-c3ccc(O)cc3)cc(=O)c12 | > 100 µM | 1.5 µM | 18 µM | – |
| Nc1cccc2oc(-c3ccccc3)cc(=O)c12 | > 100 µM | 13 µM | > 100 µM | – |
| CCCNc1ccc(-c2cc(=O)c3c(N)cccc3o2)cc1 | 0.0087 µM | 0.0067 µM | > 100 µM | – |
| O=c1c(-c2ccc(O)cc2)coc2cc(O)cc(O)c12 [GENISTEIN] | 77 µM | 11 µM | – | – |
| CNc1ccc(-c2cc(=O)c3c(N)cccc3o2)cc1 | 0.0054 µM | 0.0023 µM | > 100 µM | IC50 (HeLa [5]): 6.3 µM; IC50 (WiDr [6]): > 10 µM; IC50 (MCF7 [7]): 0.076 µM |
| Nc1cccc(-c2cc(=O)c3c(N)cccc3o2)c1 | > 100 µM | 27 µM | – | – |
| CCNc1ccc(-c2cc(=O)c3c(N)cccc3o2)cc1 | 0.0017 µM | 0.0013 µM | > 100 µM | IC50 (HeLa [5]): > 10 µM; IC50 (WiDr [6]): > 10 µM; IC50 (MCF7 [7]): 0.092 µM |
| CN(C)c1ccc(-c2cc(=O)c3cccc(N)c3o2)cc1 | 2 µM | 0.021 µM | – | – |
| CCCCCCNc1ccc(-c2cc(=O)c3c(N)cccc3o2)cc1 | 0.44 µM | 0.075 µM | – | – |
| CN(C)c1ccc(-c2cc(=O)c3ccc(N)cc3o2)cc1 | 6.9 µM | 5 µM | – | – |
| N#Cc1ccc(-c2cc(=O)c3c(N)cccc3o2)cc1 | 94 µM | > 100 µM | > 100 µM | – |
| COc1cccc2c1C(=O)c1c(O)c3c(c(O)c1C2=O)C[C@@](O)(C(=O)CO)C[C@@H]3O[C@H]1C[C@H](N)[C@H](O)[C@H](C)O1 [DOXORUBICIN] | – | – | – | IC50 (HeLa [8]): 0.03 µM; IC50 (WiDr [9]): 0.62 µM |
